From PubChem BioAssay (NCI) come the findings set out here.

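A five-concentration, 48-hour dose response in 96-well plates underlies each endpoint, interpolated linearly between surrounding concentrations. Here, GI50 denotes the concentration required for 50% inhibition of growth. At the TGI there is no net growth.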 Where only a bound is given, the exact number is not on record here.

Test systems include NCI-H460 lung; OVCAR-4 ovarian; MALME-3M melanoma; CCRF-CEM leukemia; OVCAR-3 ovarian; HOP-92 NSCLC; SK-MEL-28 melanoma; NCI/ADR-RES ovarian; ACHN renal; HS 578T breast.
What all share (assay): DTP human tumour cell line panel, 48 h

Consider `COc1ccc(-c2nc(C(=O)c3ccccc3)n(CC(=O)c3ccc(Cl)cc3)c2-c2ccc(OC)cc2)cc1`, for which the GI50 in the test on NCI-H460 lung, in the test on OVCAR-4 ovarian, in the test with MALME-3M melanoma, in the test with CCRF-CEM leukemia, in the test on OVCAR-3 ovarian and with HOP-92 NSCLC was above 100 µM throughout. Besides, the GI50 in the test with SK-MEL-28 melanoma, in the test with NCI/ADR-RES ovarian, with ACHN renal and in the test on HS 578T breast was above 100 µM each time. Moreover, the concentration for total growth inhibition (TGI) in the test on NCI-H460 lung, in the test with OVCAR-4 ovarian, in the test with MALME-3M melanoma, in the test with CCRF-CEM leukemia, with OVCAR-3 ovarian and in the test on HOP-92 NSCLC was above 100 µM throughout. The TGI with SK-MEL-28 melanoma, in the test with NCI/ADR-RES ovarian, with ACHN renal and with HS 578T breast was above 100 µM in each case.

For `COc1cccc(NC2=C(Cl)C(=O)N(Cc3ccc(Cl)cc3)C2=O)c1`, the GI50 (commonly the concentration at which growth is held to half of that of the control) with NCI-H460 lung is 2.93 µM; with OVCAR-4 ovarian it was 9.69 µM; with MALME-3M melanoma it was 1.17 µM; with OVCAR-3 ovarian, 1.62 µM; in the test on HOP-92 NSCLC, 13.1 µM; in the test on SK-MEL-28 melanoma, 8.37 µM. The figures for the GI50 in the test with NCI/ADR-RES ovarian, in the test with ACHN renal and in the test with HS 578T breast were 1.22 µM, 6.43 µM and 3.21 µM, respectively. The TGI – broadly, the concentration giving total growth inhibition – was 18.5 µM in the test on NCI-H460 lung; above 71.5 µM in the test on OVCAR-4 ovarian; 14.1 µM in the test with MALME-3M melanoma; above 68.9 µM with CCRF-CEM leukemia; 7.89 µM with OVCAR-3 ovarian; 35.4 µM in the test with HOP-92 NSCLC. For the same compound, the TGI with SK-MEL-28 melanoma turned out to be 36.3 µM; in the test with NCI/ADR-RES ovarian, 5.39 µM; in the test on ACHN renal, 49.2 µM; in the test with HS 578T breast it was 13.3 µM.

`Cn1cc(C2=C(c3cn(CCCCC(=N)N)c4ccccc34)C(=O)NC2=O)c2ccccc21`: the GI50 with NCI-H460 lung is above 23.8 µM; with OVCAR-4 ovarian it was above 25 µM; in the test on MALME-3M melanoma it was above 25 µM; in the test on CCRF-CEM leukemia, 11.5 µM; with OVCAR-3 ovarian, above 23.7 µM; with HOP-92 NSCLC, above 25 µM. Moreover, the GI50 in the test on SK-MEL-28 melanoma, in the test on NCI/ADR-RES ovarian, with ACHN renal and in the test with HS 578T breast was above 25 µM throughout. Besides, the total growth inhibition concentration (TGI) in the test on NCI-H460 lung, with OVCAR-4 ovarian, with MALME-3M melanoma, with CCRF-CEM leukemia, in the test with OVCAR-3 ovarian and in the test with HOP-92 NSCLC was above 25 µM in each case. Moreover, the TGI with SK-MEL-28 melanoma, in the test with NCI/ADR-RES ovarian, in the test on ACHN renal and with HS 578T breast was above 25 µM in each case.

Take `CN(C(=O)CNC(=O)/C=C/c1cccc(Cl)c1)C1CCS(=O)(=O)CC1`: the GI50 in the test with NCI-H460 lung was 13.9 µM; in the test with OVCAR-4 ovarian it was 5.9 µM; with MALME-3M melanoma it was 3.45 µM; with CCRF-CEM leukemia, above 100 µM; with OVCAR-3 ovarian, 1.21 µM; in the test with HOP-92 NSCLC it was above 100 µM. For the same compound, the GI50 in the test on SK-MEL-28 melanoma was 59.3 µM; in the test on NCI/ADR-RES ovarian it was above 100 µM; in the test on ACHN renal, 46.4 µM; with HS 578T breast, 90.4 µM. The concentration for total growth inhibition (TGI) in the test on NCI-H460 lung, with OVCAR-4 ovarian, in the test with MALME-3M melanoma, with CCRF-CEM leukemia, in the test with OVCAR-3 ovarian and with HOP-92 NSCLC was above 100 µM each time. Besides, the TGI in the test on SK-MEL-28 melanoma, in the test on NCI/ADR-RES ovarian, in the test on ACHN renal and in the test with HS 578T breast was above 100 µM in each case.

As to `Cc1c(Cl)cccc1NC(=O)c1sc2nc3c(cc2c1N)CCCC3`, the GI50 in the test on NCI-H460 lung was 0.473 µM; in the test on OVCAR-4 ovarian it was 0.827 µM; in the test with MALME-3M melanoma it was 0.571 µM; in the test with CCRF-CEM leukemia it was 0.447 µM; in the test with OVCAR-3 ovarian it was 0.378 µM; in the test with HOP-92 NSCLC, 0.994 µM. The GI50 was 0.396 µM in the test with NCI/ADR-RES ovarian, 0.785 µM in the test on ACHN renal and 1.05 µM in the test with HS 578T breast. Further, the TGI in the test with NCI-H460 lung, in the test on OVCAR-4 ovarian, in the test on MALME-3M melanoma, in the test on CCRF-CEM leukemia, with OVCAR-3 ovarian and in the test on HOP-92 NSCLC was above 100 µM each time. In addition, the TGI in the test on SK-MEL-28 melanoma, in the test with NCI/ADR-RES ovarian, in the test with ACHN renal and in the test with HS 578T breast was above 100 µM throughout.
